Assay results reported in ChEMBL document CHEMBL1137686, “Synthesis and anticonvulsant activity of new N-[(4-arylpiperazin-1-yl)-alkyl] derivatives of 3-phenyl-pyrrolidine-2,5-dione” (Eur J Med Chem, 2009).
Active and inactive are the calls of the source. The rule behind the calls is not given here.

Assays:
Mus musculus [1] = assay: Anticonvulsant activity in ip dosed mouse assessed as inhibition of maximal electroshock-induced seizures; type: functional
Mus musculus [2] = assay: Anticonvulsant activity in CF1 albino mouse assessed as protection against maximal electroshock-induced seizures at 30 mg/kg, po after 1 hr; type: functional
Mus musculus [3] = assay: Anticonvulsant activity in CF1 albino mouse assessed as protection against maximal electroshock-induced seizures at 30 mg/kg, po after 2 hrs; type: functional
Mus musculus [4] = assay: Anticonvulsant activity in CF1 albino mouse assessed as protection against maximal electroshock-induced seizures at 30 mg/kg, po after 4 hrs; type: functional
Mus musculus [5] = assay: Neurotoxicity in CF1 albino mouse assessed as motor impairment at 30 mg/kg, po after 0.25 hrs by rotarod test; type: toxicity, organism-based; set-up: dose 30 mg/kg, route oral; details: in vivo
Mus musculus [6] = assay: Neurotoxicity in CF1 albino mouse assessed as motor impairment at 30 mg/kg, po after 0.5 hrs by rotarod test; type: toxicity, organism-based; set-up: dose 30 mg/kg, route oral; details: in vivo
Mus musculus [7] = assay: Neurotoxicity in CF1 albino mouse assessed as motor impairment at 30 mg/kg, po after 1 hr by rotarod test; type: toxicity, organism-based; set-up: dose 30 mg/kg, route oral; details: in vivo
Mus musculus [8] = assay: Neurotoxicity in CF1 albino mouse assessed as motor impairment at 30 mg/kg, po after 2 hrs by rotarod test; type: toxicity, organism-based; set-up: dose 30 mg/kg, route oral; details: in vivo
Mus musculus [9] = assay: Neurotoxicity in CF1 albino mouse assessed as motor impairment at 30 mg/kg, po after 4 hrs by rotarod test; type: toxicity, organism-based; set-up: dose 30 mg/kg, route oral; details: in vivo
Rattus norvegicus [10] = assay: Anticonvulsant activity against maximal electroshock-induced seizures in po dosed rat assessed as time to peak effect; type: functional
Rattus norvegicus [11] = assay: Anticonvulsant activity in po dosed rat assessed as inhibition of maximal electroshock-induced seizures; type: functional
Rattus norvegicus [12] = assay: Anticonvulsant activity in po dosed rat assessed as inhibition of subcutaneous pentylenetetrazole-induced seizures; type: functional
[13] = Neurotoxicity in po dosed rat assessed as ability to maintain equilibrium for 1 min on […] by rotarod test; type: toxicity, organism-based; details: in vivo
Rattus norvegicus [14] = species on record: Rattus norvegicus; assay: Protective index, ratio of TD50 for neurotoxicity in rat to ED50 for inhibition of maximal electroshock-induced seizures in rat; type: functional
Mus musculus [15] = assay: Anticonvulsant activity in ip dosed CF1 albino mouse assessed as inhibition of maximal electroshock-induced seizures after 4 hrs; type: functional
Mus musculus [16] = assay: Anticonvulsant activity in CF1 albino mouse assessed as inhibition of maximal electroshock-induced seizures at 300 mg/kg, ip after 0.5 hrs; type: functional, organism-based; set-up: dose 300 mg/kg
Mus musculus [17] = assay: Neurotoxicity in ip dosed CF1 albino mouse assessed as ability to maintain equilibrium for 1 min on […] after 0.5 hrs by rotarod test; type: toxicity, organism-based; details: in vivo
Mus musculus [18] = assay: Neurotoxicity in CF1 albino mouse assessed as ability to maintain equilibrium for 1 min on […] at 300 mg/kg, ip after 4 hrs by rotarod test; type: toxicity, organism-based; set-up: dose 300 mg/kg, route intraperitoneal; details: in vivo
Mus musculus [19] = assay: Anticonvulsant activity in CF1 albino mouse assessed as protection against maximal electroshock-induced seizures at 30 mg/kg, po after 0.25 hrs; type: functional
Mus musculus [20] = assay: Anticonvulsant activity in CF1 albino mouse assessed as protection against maximal electroshock-induced seizures at 30 mg/kg, po after 0.5 hrs; type: functional
Mus musculus [21] = assay: Anticonvulsant activity in CF1 albino mouse assessed as inhibition of maximal electroshock-induced seizures at 300 mg/kg, ip after 4 hrs; type: functional, organism-based; set-up: dose 300 mg/kg
Mus musculus [22] = assay: Neurotoxicity in CF1 albino mouse assessed as ability to grasp rotarod at 300 mg/kg, ip after 0.5 hrs by rotarod test; type: toxicity, organism-based; set-up: dose 300 mg/kg, route intraperitoneal; details: in vivo
Mus musculus [23] = assay: Neurotoxicity in CF1 albino mouse assessed as muscle spasm at 300 mg/kg, po after 0.5 hrs by rotarod test; type: toxicity, organism-based, Muscle tissue; set-up: dose 300 mg/kg, route oral; details: in vivo
Mus musculus [24] = assay: Neurotoxicity in CF1 albino mouse assessed as occurance of tremors at 300 mg/kg, ip after 4 hrs by rotarod test; type: toxicity, organism-based; set-up: dose 300 mg/kg, route intraperitoneal; details: in vivo
Mus musculus [25] = assay: Anticonvulsant activity in ip dosed CF1 albino mouse assessed as inhibition of maximal electroshock-induced seizures after 0.5 hrs; type: functional
Mus musculus [26] = assay: Neurotoxicity in ip dosed CF1 albino mouse assessed as ability to maintain equilibrium for 1 min on […] after 4 hrs by rotarod test; type: toxicity, organism-based; details: in vivo
Mus musculus [27] = assay: Anticonvulsant activity in CF1 albino mouse assessed as inhibition of subcutaneous pentylenetetrazole-induced seizures at 100 mg/kg, ip after 4 hrs; type: functional, organism-based; set-up: dose 100 mg/kg
Mus musculus [28] = assay: Anticonvulsant activity in CF1 albino mouse assessed as inhibition of subcutaneous pentylenetetrazole-induced seizures at 300 mg/kg, ip after 4 hrs; type: functional, organism-based; set-up: dose 300 mg/kg
Mus musculus [29] = assay: Toxicity in CF1 albino mouse assessed as myoclonic jerks at 100 mg/kg, ip after 4 hrs; type: organism-based; set-up: dose 100 mg/kg, route intraperitoneal; details: in vivo
Mus musculus [30] = assay: Toxicity in CF1 albino mouse assessed as myoclonic jerks at 300 mg/kg, ip after 4 hrs; type: organism-based; set-up: dose 300 mg/kg, route intraperitoneal; details: in vivo
Mus musculus [31] = assay: Anticonvulsant activity against maximal electroshock-induced seizures in ip dosed CF1 albino mouse assessed as time to peak effect; type: functional
Mus musculus [32] = assay: Anticonvulsant activity in ip dosed CF1 albino mouse assessed as inhibition of maximal electroshock-induced seizures; type: functional
Mus musculus [33] = assay: Anticonvulsant activity in ip dosed CF1 albino mouse assessed as inhibition of subcutaneous pentylenetetrazole-induced seizures; type: functional
[34] = Neurotoxicity in ip dosed CF1 albino mouse assessed as ability to maintain equilibrium for 1 min on […] by rotarod test; type: toxicity, organism-based; details: in vivo
Mus musculus [35] = species on record: Mus musculus; assay: Protective index, ratio of TD50 for neurotoxicity in CF1 albino mouse to ED50 for inhibition of maximal electroshock-induced seizures in CF1 albino mouse; type: functional
Mus musculus [36] = assay: Anticonvulsant activity in CF1 albino mouse assessed as protection against maximal electroshock-induced seizures at 30 mg/kg, ip after 0.25 hrs; type: functional
Mus musculus [37] = assay: Anticonvulsant activity in CF1 albino mouse assessed as protection against maximal electroshock-induced seizures at 30 mg/kg, ip after 0.5 hrs; type: functional
Mus musculus [38] = assay: Anticonvulsant activity in CF1 albino mouse assessed as protection against maximal electroshock-induced seizures at 30 mg/kg, ip after 1 hr; type: functional
Mus musculus [39] = assay: Anticonvulsant activity in CF1 albino mouse assessed as protection against maximal electroshock-induced seizures at 30 mg/kg, ip after 2 hrs; type: functional
Mus musculus [40] = assay: Anticonvulsant activity in CF1 albino mouse assessed as protection against maximal electroshock-induced seizures at 30 mg/kg, ip after 4 hrs; type: functional
Mus musculus [41] = assay: Neurotoxicity in CF1 albino mouse assessed as motor impairment at 30 mg/kg, ip after 0.25 hrs by rotarod test; type: toxicity, organism-based; set-up: dose 30 mg/kg, route intraperitoneal; details: in vivo
Mus musculus [42] = assay: Neurotoxicity in CF1 albino mouse assessed as motor impairment at 30 mg/kg, ip after 0.5 hrs by rotarod test; type: toxicity, organism-based; set-up: dose 30 mg/kg, route intraperitoneal; details: in vivo
Mus musculus [43] = assay: Neurotoxicity in CF1 albino mouse assessed as motor impairment at 30 mg/kg, ip after 4 hrs by rotarod test; type: toxicity, organism-based; set-up: dose 30 mg/kg, route intraperitoneal; details: in vivo
Mus musculus [44] = assay: Neurotoxicity in CF1 albino mouse assessed as death at 300 mg/kg, ip after 0.5 hrs by rotarod test; type: toxicity, organism-based; set-up: dose 300 mg/kg, route intraperitoneal; details: in vivo
Mus musculus [45] = assay: Neurotoxicity in CF1 albino mouse assessed as occurance of tremors at 300 mg/kg, ip after 0.5 hrs by rotarod test; type: toxicity, organism-based; set-up: dose 300 mg/kg, route intraperitoneal; details: in vivo
Mus musculus [46] = assay: Neurotoxicity in CF1 albino mouse assessed as motor impairment at 30 mg/kg, ip after 1 hr by rotarod test; type: toxicity, organism-based; set-up: dose 30 mg/kg, route intraperitoneal; details: in vivo
Mus musculus [47] = assay: Neurotoxicity in CF1 albino mouse assessed as motor impairment at 30 mg/kg, ip after 2 hrs by rotarod test; type: toxicity, organism-based; set-up: dose 30 mg/kg, route intraperitoneal; details: in vivo
Mus musculus [48] = assay: Neurotoxicity in CF1 albino mouse assessed as ability to maintain equilibrium for 1 min on […] at 300 mg/kg, ip after 0.5 hrs by rotarod test; type: toxicity, organism-based; set-up: dose 300 mg/kg, route intraperitoneal; details: in vivo

Compound	Activity (Mus musculus [2]) [%]	Activity (Mus musculus [3])	Activity (Mus musculus [4])	Activity (Mus musculus [5])	Activity (Mus musculus [6])	Activity (Mus musculus [7])	Activity (Mus musculus [8])	Activity (Mus musculus [9])	Activity (Mus musculus [15]) [mg/kg]	Activity (Mus musculus [16])	Activity (Mus musculus [17]) [mg/kg]	Activity (Mus musculus [18])	Activity (Mus musculus [19])	Activity (Mus musculus [20])	Activity (Mus musculus [25]) [mg/kg]	Activity (Mus musculus [26]) [mg/kg]	further results
Cc1cccc(N2CCN(CCCN3C(=O)CC(c4ccccc4Cl)C3=O)CC2)c1 (stereo not drawn)	–	–	–	–	–	–	–	–	–	–	–	–	–	–	–	–	Activity (Mus musculus [1]): 120 mg/kg
O=C1CC(c2ccccc2C(F)(F)F)C(=O)N1CN1CCN(c2ccccc2)CC1 (stereo not drawn)	25	50%	75%	Non-toxic	Non-toxic	Non-toxic	Non-toxic	Non-toxic	30	inactive	300	Non-toxic	25%	inactive	–	–	Time (Rattus norvegicus [10]): 8 h; ED50 (Rattus norvegicus [11]): 20.8 mg/kg; ED50 (Rattus norvegicus [12]): > 250 mg/kg; TD50 at 1 min [13]: > 500 mg/kg; Ratio TD50/ED50 (Rattus norvegicus [14]): >24.1
COc1ccccc1N1CCN(CCN2C(=O)CC(c3ccccc3C(F)(F)F)C2=O)CC1 (stereo not drawn)	–	–	–	–	–	–	–	–	–	inactive	300	Non-toxic	–	–	–	–	Activity (Mus musculus [21]): inactive; Activity (Mus musculus [22]): Toxic; Activity (Mus musculus [23]): Toxic
COc1ccccc1N1CCN(CN2C(=O)CC(c3ccccc3C(F)(F)F)C2=O)CC1 (stereo not drawn)	–	–	–	–	–	–	–	–	300	–	100	–	–	–	300	100	Activity (Mus musculus [24]): Toxic; Activity (Mus musculus [27]): Active; Activity (Mus musculus [28]): Active; Activity (Mus musculus [29]): Toxic; Activity (Mus musculus [30]): Toxic
O=C1CC(c2ccccc2C(F)(F)F)C(=O)N1CCCN1CCN(c2cccc(C(F)(F)F)c2)CC1 (stereo not drawn)	25	inactive	inactive	Non-toxic	Non-toxic	Non-toxic	Non-toxic	Non-toxic	100	–	300	–	inactive	25%	30	300	Time (Mus musculus [31]): 2 h; ED50 (Mus musculus [32]): 132 mg/kg; ED50 (Mus musculus [33]): > 350 mg/kg; TD50 at 1 min [34]: 360 mg/kg; Ratio TD50/ED50 (Mus musculus [35]): 2.72
Cc1ccccc1C1CC(=O)N(CN2CCN(c3cccc(C(F)(F)F)c3)CC2)C1=O (stereo not drawn)	50	25%	50%	50%	25%	Non-toxic	Non-toxic	Non-toxic	30	–	300	Non-toxic	inactive	inactive	30	–	Activity (Mus musculus [36]; route intraperitoneal): 50%; Activity (Mus musculus [37]; route intraperitoneal): 50%; Activity (Mus musculus [38]; route intraperitoneal): 100%; Activity (Mus musculus [39]; route intraperitoneal): 50%; Activity (Mus musculus [40]; route intraperitoneal): 50%; Activity (Mus musculus [41]): Toxic; Activity (Mus musculus [42]): Toxic; Activity (Mus musculus [43]): Non-toxic; Activity (Mus musculus [22]): Toxic; Activity (Mus musculus [44]): Toxic; Activity (Mus musculus [45]): Toxic
O=C1NC(=O)C(c2ccccc2)(c2ccccc2)N1 [PHENYTOIN]	–	–	–	–	–	–	–	–	30	–	100	–	–	Active	30	100	Time (Mus musculus [31]): 1 h; ED50 (Mus musculus [32]): 5.32 mg/kg; ED50 (Mus musculus [33]): > 500 mg/kg; TD50 at 1 min [34]: 41.2 mg/kg; Ratio TD50/ED50 (Mus musculus [35]): 6.52; Time (Rattus norvegicus [10]): 2 h; ED50 (Rattus norvegicus [12]): > 500 mg/kg; TD50 at 1 min [13]: > 500 mg/kg; Ratio TD50/ED50 (Rattus norvegicus [14]): >21.6
Cc1ccccc1C1CC(=O)N(CCN2CCN(c3cccc(Cl)c3)CC2)C1=O (stereo not drawn)	25	inactive	50%	Non-toxic	Non-toxic	Non-toxic	Non-toxic	Non-toxic	100	inactive	–	Non-toxic	inactive	inactive	–	–	Activity (Mus musculus [36]): inactive; Activity (Mus musculus [37]): inactive; Activity (Mus musculus [38]): inactive; Activity (Mus musculus [39]): inactive; Activity (Mus musculus [40]): inactive; Activity (Mus musculus [41]): Non-toxic; Activity (Mus musculus [42]): Non-toxic; Activity (Mus musculus [46]): Non-toxic; Activity (Mus musculus [47]): Non-toxic; Activity (Mus musculus [43]): Non-toxic; Activity (Mus musculus [48]): Non-toxic
O=C1CC2(CCc3ccccc3C2)C(=O)N1CCCN1CCN(c2cccc(C(F)(F)F)c2)CC1 (stereo not drawn)	–	–	–	–	–	–	–	–	–	–	–	–	–	–	–	–	ED50 (Mus musculus [1]; Mus musculus, ip): 23 mg/kg
